Source: ChEMBL document CHEMBL1151926, “Synthesis and SAR of C12-C13-oxazoline derivatives of epothilone A” (Bioorg Med Chem Lett, 2009)

How the values were obtained:
[1] = test system: A549; test: Antiproliferative activity against human A549 cells after 72 hrs; assay type: functional, cell-based; details: A549, 72 h
[2] = test system: MCF7; test: Antiproliferative activity against human MCF7 cells after 72 hrs; assay type: functional, cell-based; details: MCF7, 72 h
[3] = test system: Tubulin (Sus scrofa); test: Induction of porcine brain tubulin polymerization at 5 uM relative to 25 uM epothilone B
[4] = test system: Tubulin (Sus scrofa); test: Induction of porcine brain tubulin polymerization at 2 uM relative to 25 uM epothilone B
[5] = Antiproliferative activity against human KB-3-1 cells after 72 hrs; assay type: functional, cell-based; details: KB 3-1, 72 h

SMILES	IC50 [1] [nM]	IC50 [2] [nM]	Activity [3] [%]	Activity [4] [%]	IC50 [5] [nM]
C/C(=C\c1csc(C)n1)[C@@H]1C[C@@H]2OC(c3ccc(C)cc3)=N[C@H]2CCC[C@H](C)[C@H](O)[C@@H](C)C(=O)C(C)(C)[C@@H](O)CC(=O)O1	2.9	1.9	88	71	
C/C(=C\c1csc(C)n1)[C@@H]1C[C@@H]2OC(c3ccc(C(C)C)cc3)=N[C@H]2CCC[C@H](C)[C@H](O)[C@@H](C)C(=O)C(C)(C)[C@@H](O)CC(=O)O1	4870	5140	15	14	
C/C(=C\c1csc(C)n1)[C@@H]1C[C@@H]2OC(c3ccc(C(C)(C)C)cc3)=N[C@H]2CCC[C@H](C)[C@H](O)[C@@H](C)C(=O)C(C)(C)[C@@H](O)CC(=O)O1	> 10000	> 10000	7	0	
COC1=N[C@H]2CCC[C@H](C)[C@H](O)[C@@H](C)C(=O)C(C)(C)[C@@H](O)CC(=O)O[C@H](/C(C)=C/c3csc(C)n3)C[C@@H]2O1					> 1000
CCc1ccc(C2=N[C@H]3CCC[C@H](C)[C@H](O)[C@@H](C)C(=O)C(C)(C)[C@@H](O)CC(=O)O[C@H](/C(C)=C/c4csc(C)n4)C[C@@H]3O2)cc1	378	297	36	32	
C/C(=C\c1csc(C)n1)[C@@H]1C[C@@H]2OC(c3cccnc3)=N[C@H]2CCC[C@H](C)[C@H](O)[C@@H](C)C(=O)C(C)(C)[C@@H](O)CC(=O)O1	0.92	1.3	93	78	
C/C(=C\c1csc(C)n1)[C@@H]1CC2O[C@@H]2CCC[C@H](C)[C@H](O)[C@@H](C)C(=O)C(C)(C)[C@@H](O)CC(=O)O1 (single isomer, unassigned) [EPOTHILONE A]	2.2	2.6	89	83	
C/C(=C\c1csc(C)n1)[C@@H]1C[C@@H]2OC(c3ccccc3)=N[C@H]2CCC[C@H](C)[C@H](O)[C@@H](C)C(=O)C(C)(C)[C@@H](O)CC(=O)O1	16.4	19.2	80	65	
CC1=N[C@H]2CCC[C@H](C)[C@H](O)[C@@H](C)C(=O)C(C)(C)[C@@H](O)CC(=O)O[C@H](/C(C)=C/c3csc(C)n3)C[C@@H]2O1					> 1000
